Measurements taken from patent EP4635958A1, “PYRIMIDINE-CONTAINING POLYCYCLIC DERIVATIVE INHIBITOR, AND PREPARATION METHOD THEREFOR AND USE THEREOF” (Shanghai Hansoh Biomedical Co., Ltd., priority 2022, dated 2024).

Tests used:
[1] = tested on: human colorectal cancer cell line (GP2D); assay: Anti-tumor efficacy in mouse transplanted tumor model of human colorectal cancer cell line (GP2D); type: in vivo, mice (BALB/c nude); details: 30mpk, PO*BID, Day 14
[2] = tested on: human colorectal cancer cell line (GP2D); assay: as above; type: in vivo, mice (BALB/c nude); details: PO*BID
From the text: 8-10 week old female conventional immunodeficient mice (BALB/c nude) with a body weight of 18 g-22 g were used as experimental animals, and a transplanted tumor model of human colorectal cancer cell line (GP2D) was used to conduct in vivo efficacy experiments to test the anti-tumor results of the example compounds after gavage administration.
The example compounds of the present invention, made in house.
A certain amount of the example compound was weighed, and an appropriate amount of 10% vehicle (Solutol HS15) was added. The mixture was stirred on a magnetic stirrer for 0.5 h to formulate a homogeneous suspension at the desired concentration.
The human colorectal cancer cell line (GP2D) was derived from COBIOER BIOSCIENCES CO., LTD, cultured on DMEM medium (Gibco, 11995-065) supplemented with 10% fetal calf serum (Gibco, 10091-148) and 1% penicillin/streptomycin (Gibco, 15140-122) and observed under a microscope (Thermo Fisher, 311). The cells were routinely passaged when the cells reached 80%-90% confluence in the culture flask. The passaged cells were cultured in a 37°C, 5% CO2 incubator (Thermo Fisher, 311).
Under aseptic conditions, human colorectal cancer cells (GP2D) in the logarithmic growth phase were harvested using 0.25% trypsin-EDTA (Gibco, 25200-056), washed and resuspended with phosphate buffer. The cell suspension was mixed with Matrigel (Corning, 356234) at a 1 : 1 ratio (v/v) and implanted subcutaneously into the right anterior dorsal region of immunodeficient mice (BALB/c nude). Each mouse was inoculated with 5*10^6 cells in a volume of 100 microliters (µL). After inoculation, when the tumor volume reached 100-200 mm^3, the mice would be evenly randomized into 5 groups based on the tumor size, with 5 mice per group, for in vivo efficacy experiments. The positive control group was the compound MRTX-1133, and the negative control group was the vehicle group.
Mode of administration: The positive control group was intraperitoneally injected, and the example compounds were administered orally.
Twice a week, the long and short diameters of the tumor were measured using a vernier caliper, and the tumor volume (mm^3) was calculated using the formula: V = 0.5*D*d*d, where D and d are the long and short diameters of the tumor, respectively. The anti-tumor efficacy was determined by dividing the average increase in tumor volume of compound-treated animals by the average increase in tumor volume of untreated animals. The calculation formula for tumor inhibition rate was: When there is no tumor regression, TGI(%) = 100-[(Vt-V0) administration group/(Vt-V0) vehicle control group]*100%. When tumor regression occurs, TGI(%) = [1-(V1-V0) administration group/V0 vehicle control group]* 100%. All animals were euthanized after the experiment.

[3] = Plasma stability test, dog plasma; type: in vitro ADME; details: Dog plasma, 37°C;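 note: parent compound left in dog plasma quantified by LC-MS with positive electrospray ionization, selected reaction monitoring and an internal standard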
Description: Liquid chromatography-mass spectrometer, centrifuge, vortexer, pipette, continuous dispenser, 96-well plate, 50% methanol aqueous solution, acetonitrile solution containing internal standard, blank matrix (plasma of rat, dog, or human), Propantheline (propantheline bromide), Mevinolin (lovastatin), and test compound.
After whole blood was collected from animals or humans, it was placed in a test tube containing an anticoagulant and centrifuged at 3500 rpm for 10 min to collect the upper pale yellow plasma.
The compound was weighed and the stock solution was formulated with DMSO and the working solution was formulated with 100 mM phosphate buffer.
• Instrument: API4000 liquid chromatography-mass spectrometer, AB Company, USA; • the ion source was electrospray ionization source (ESI); • drying gas (N2) temperature was 500°C; • electrospray voltage was 5500V; • the detection method was positive ion detection; • the scanning method was selected reaction monitoring (MRM); • the scanning time was 0.1s.

p-ERK in AGS cells = assay: Inhibition of p-ERK in AGS cells (LANCE Ultra phospho-ERK1/2 kit); type: cell-based; details: Homo sapiens, AGS, 2 h, read-out: AGS_pERK IC50
Summary of the method: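 AGS (KRAS G12D) cells plated overnight, treated with compound dilutions for 2 h at 37°C, then lysed. Lysate p-ERK1/2 (T202/Y204) read by TR-FRET with 0.5 nM Eu anti-p-ERK and 5 nM ULight anti-ERK after overnight room-temperature incubation (665/620 nm). IC50 from nonlinear regression of inhibition versus concentration.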

Structure (SMILES): C#Cc1c(F)ccc2cc(O)cc(-c3nc4c5c(nc(OCC6(CN7CCC(=CF)CC7)CC6)nc5c3F)N3C[C@H]5CC[C@H](N5)[C@H]3[C@H](C)O4)c12 [Example 129, 5-ethynyl-6-fluoro-4-((5S,5aS,6S,9R)-1-fluoro-12-((1-((4-(fluoromethylene)piperidin-1-yl)methyl)cyclopropyl)methoxy)-5-methyl-5a,6,7,8,9,10-hexahydro-5H-4-oxa-3,10a,11,13,14-pentaaza-6,9-methylnaphtho[1,8-ab]hept-2-yl)naphthalen-2-ol]
- Tumor volume (mm^3, Mean ± SD) Day 14 [1]: 112 mm^3
- Tumor volume (mm^3, Mean ± SD) Day 0 ([2]; 30mpk): 167 mm^3
- TGI(%) Day 14 ([2]; 30mpk, Day 14): 133.12%
- ΔT/ΔC(%) Day 14 ([2]; 30mpk, Day 14): 14.15%
- Tumor volume (mm^3, Mean ± SD) Day 0 ([2]; 100mpk): 167 mm^3
- TGI(%) Day 14 ([2]; 100mpk, Day 14): 153.01%
- Tumor volume (mm^3, Mean ± SD) Day 14 ([2]; 100mpk, Day 14): 79 mm^3
- ΔT/ΔC(%) Day 14 ([2]; 100mpk, Day 14): 9.94%
- t1/2 [3]: ∞
- Remaining rate (%) 0 min ([3]; 0 min): 100.00%
- Remaining rate (%) 15 min ([3]; 15 min): 100.48%
- Remaining rate (%) 30 min ([3]; 30 min): 100.22%
- Remaining rate (%) 60 min ([3]; 60 min): 97.42%
- Remaining rate (%) 120 min ([3]; 120 min): 110.22%
- IC50 (p-ERK in AGS cells): 2.4 nM
